Key:
[1] = tested on: rat liver cells; experiment: Ex vivo unscheduled DNA synthesis; type: in vivo
Protocol: Groups of young male Sprague-Dawley rats received fexinidazole at doses of 500, 1000, or 2000 mg/kg orally, and the livers were sampled either 2–4 h or 12–14 h after administration. Hepatocyte suspensions were prepared and incubated in the presence of […] thymidine. Slides of fixed hepatocytes were coated in photographic emulsion and stored for 14 days at 4°C in the dark. The silver grains above the nuclei or cytoplasm (background) were counted, providing a measure of DNA uptake during DNA repair. The difference between these two counts indicated the extent of DNA repair (nuclear net grain count).

[2] = molecular target: CYP2C19 (Homo sapiens, UniProt P33261); experiment: In vitro CYP-450 metabolism; type: in vitro ADME; details: 1.0 µM, up to 60 min
Sequence of CYP2C19 (P33261 whole entry): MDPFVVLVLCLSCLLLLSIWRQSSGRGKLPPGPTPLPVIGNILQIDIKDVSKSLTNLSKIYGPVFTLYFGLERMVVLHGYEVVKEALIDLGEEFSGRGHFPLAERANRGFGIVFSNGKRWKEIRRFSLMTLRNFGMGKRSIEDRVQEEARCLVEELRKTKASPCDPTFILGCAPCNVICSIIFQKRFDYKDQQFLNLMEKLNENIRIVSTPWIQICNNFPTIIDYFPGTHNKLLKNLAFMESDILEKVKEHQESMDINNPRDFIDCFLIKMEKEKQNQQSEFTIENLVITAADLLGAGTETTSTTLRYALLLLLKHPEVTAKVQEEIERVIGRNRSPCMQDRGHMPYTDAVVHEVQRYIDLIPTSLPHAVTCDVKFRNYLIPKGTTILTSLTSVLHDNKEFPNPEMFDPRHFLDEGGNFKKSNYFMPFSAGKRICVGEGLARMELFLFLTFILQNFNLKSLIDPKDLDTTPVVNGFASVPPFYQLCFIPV
Protocol: (§1) Duplicate samples of human recombinant CYP enzyme isotypes CYP1A2, CYP2B6, CYP2C8, CYP2C9, CYP2C19, CYP2D6, CYP3A4, CYP3A5 (10–30 pmol/mL) with NADPH as cofactor were incubated with fexinidazole, fexinidazole sulfoxide, or fexinidazole sulfone at a concentration of 1.0 µM for up to 60 min (pH 7.4, 37°C). Detection of the compounds was via HPLC-MS.

[3] = molecular target: CYP3A4 (Homo sapiens, UniProt P08684); experiment: In vitro CYP-450 metabolism; type: in vitro ADME; details: 1.0 µM, up to 60 min
Sequence of CYP3A4 (P08684 whole entry): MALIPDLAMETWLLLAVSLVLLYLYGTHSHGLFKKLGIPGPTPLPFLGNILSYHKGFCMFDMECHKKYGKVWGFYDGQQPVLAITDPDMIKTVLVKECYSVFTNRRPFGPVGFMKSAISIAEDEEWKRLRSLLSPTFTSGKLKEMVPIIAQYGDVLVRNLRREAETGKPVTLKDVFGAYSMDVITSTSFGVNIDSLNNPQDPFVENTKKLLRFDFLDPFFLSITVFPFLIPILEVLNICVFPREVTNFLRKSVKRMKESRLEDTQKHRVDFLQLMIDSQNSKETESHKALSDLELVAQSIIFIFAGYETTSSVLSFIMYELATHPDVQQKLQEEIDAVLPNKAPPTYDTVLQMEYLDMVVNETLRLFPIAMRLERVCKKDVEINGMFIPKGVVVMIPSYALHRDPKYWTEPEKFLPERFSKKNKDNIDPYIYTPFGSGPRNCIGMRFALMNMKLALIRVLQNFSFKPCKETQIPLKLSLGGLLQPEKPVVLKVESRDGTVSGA
Protocol: as §1

[4] = molecular target: CYP2C8 (Homo sapiens, UniProt P10632); experiment: In vitro CYP-450 metabolism; type: in vitro ADME; details: 1.0 µM, up to 60 min
Sequence of CYP2C8 (P10632 whole entry): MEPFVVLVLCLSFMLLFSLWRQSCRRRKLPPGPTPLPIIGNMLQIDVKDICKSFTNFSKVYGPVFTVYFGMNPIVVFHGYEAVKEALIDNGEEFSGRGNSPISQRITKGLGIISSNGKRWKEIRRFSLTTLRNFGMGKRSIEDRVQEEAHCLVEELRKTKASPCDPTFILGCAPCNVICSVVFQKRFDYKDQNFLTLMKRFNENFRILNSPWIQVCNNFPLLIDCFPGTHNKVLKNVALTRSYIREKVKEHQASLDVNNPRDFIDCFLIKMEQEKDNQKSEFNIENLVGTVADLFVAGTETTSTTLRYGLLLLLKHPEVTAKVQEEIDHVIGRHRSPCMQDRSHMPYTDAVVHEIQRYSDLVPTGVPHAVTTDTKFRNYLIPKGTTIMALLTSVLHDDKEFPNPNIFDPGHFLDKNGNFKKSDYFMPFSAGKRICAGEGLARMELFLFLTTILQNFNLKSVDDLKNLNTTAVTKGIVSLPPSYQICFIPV
Protocol: as §1

[5] = molecular target: CYP3A5 (Homo sapiens, UniProt P20815); experiment: In vitro CYP-450 metabolism; type: in vitro ADME; details: 1.0 µM, up to 60 min
Sequence of CYP3A5 (P20815 whole entry): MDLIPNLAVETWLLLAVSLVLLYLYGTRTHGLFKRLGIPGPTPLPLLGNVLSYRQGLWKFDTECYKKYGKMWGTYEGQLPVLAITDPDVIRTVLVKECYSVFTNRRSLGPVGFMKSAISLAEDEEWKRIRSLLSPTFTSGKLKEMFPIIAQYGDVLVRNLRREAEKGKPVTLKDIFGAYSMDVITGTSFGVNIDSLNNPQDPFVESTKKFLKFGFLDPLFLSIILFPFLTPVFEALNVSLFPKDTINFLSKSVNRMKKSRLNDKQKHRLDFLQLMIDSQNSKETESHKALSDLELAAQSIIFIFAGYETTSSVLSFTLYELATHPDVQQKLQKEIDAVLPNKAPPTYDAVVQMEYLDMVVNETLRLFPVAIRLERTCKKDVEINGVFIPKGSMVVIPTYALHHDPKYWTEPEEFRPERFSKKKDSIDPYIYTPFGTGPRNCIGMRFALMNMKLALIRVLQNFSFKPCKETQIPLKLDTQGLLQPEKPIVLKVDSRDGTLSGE
Protocol: as §1

[6] = molecular target: CYP2B6 (Homo sapiens, UniProt P20813); experiment: In vitro CYP-450 metabolism; type: in vitro ADME; details: 1.0 µM, up to 60 min
Sequence of CYP2B6 (P20813 whole entry): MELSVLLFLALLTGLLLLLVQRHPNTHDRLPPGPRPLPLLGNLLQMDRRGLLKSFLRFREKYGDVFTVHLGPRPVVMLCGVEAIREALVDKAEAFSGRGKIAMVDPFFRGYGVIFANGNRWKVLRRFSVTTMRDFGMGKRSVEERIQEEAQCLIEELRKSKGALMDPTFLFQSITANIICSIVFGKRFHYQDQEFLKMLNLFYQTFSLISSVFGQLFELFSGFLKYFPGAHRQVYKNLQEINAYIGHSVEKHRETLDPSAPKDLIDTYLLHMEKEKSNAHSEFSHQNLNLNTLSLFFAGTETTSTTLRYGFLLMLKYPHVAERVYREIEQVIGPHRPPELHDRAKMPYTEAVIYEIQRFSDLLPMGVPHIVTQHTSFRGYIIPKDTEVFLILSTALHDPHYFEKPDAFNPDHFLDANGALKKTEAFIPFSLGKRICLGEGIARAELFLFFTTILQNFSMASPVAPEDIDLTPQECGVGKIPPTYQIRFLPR
Protocol: as §1

[7] = molecular target: CYP2C9 (Homo sapiens, UniProt P11712); experiment: In vitro CYP-450 metabolism; type: in vitro ADME; details: 1.0 µM, up to 60 min
Sequence of CYP2C9 (P11712 whole entry): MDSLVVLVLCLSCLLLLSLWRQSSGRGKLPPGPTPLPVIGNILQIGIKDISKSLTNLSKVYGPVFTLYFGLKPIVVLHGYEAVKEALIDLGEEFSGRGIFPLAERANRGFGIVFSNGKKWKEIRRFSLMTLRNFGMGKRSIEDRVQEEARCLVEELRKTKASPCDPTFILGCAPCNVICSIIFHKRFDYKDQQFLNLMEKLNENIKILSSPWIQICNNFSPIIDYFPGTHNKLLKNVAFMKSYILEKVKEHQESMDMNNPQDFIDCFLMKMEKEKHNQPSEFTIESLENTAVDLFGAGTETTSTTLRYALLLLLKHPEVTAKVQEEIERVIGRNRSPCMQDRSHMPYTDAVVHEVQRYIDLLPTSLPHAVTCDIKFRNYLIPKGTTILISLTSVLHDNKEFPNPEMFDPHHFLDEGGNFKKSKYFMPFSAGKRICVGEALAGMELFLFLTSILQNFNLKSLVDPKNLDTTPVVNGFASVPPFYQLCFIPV
Protocol: as §1

[8] = molecular target: CYP1A2 (Homo sapiens, UniProt P05177); experiment: In vitro CYP-450 metabolism; type: in vitro ADME; details: 1.0 µM, up to 60 min
Sequence of CYP1A2 (P05177 whole entry): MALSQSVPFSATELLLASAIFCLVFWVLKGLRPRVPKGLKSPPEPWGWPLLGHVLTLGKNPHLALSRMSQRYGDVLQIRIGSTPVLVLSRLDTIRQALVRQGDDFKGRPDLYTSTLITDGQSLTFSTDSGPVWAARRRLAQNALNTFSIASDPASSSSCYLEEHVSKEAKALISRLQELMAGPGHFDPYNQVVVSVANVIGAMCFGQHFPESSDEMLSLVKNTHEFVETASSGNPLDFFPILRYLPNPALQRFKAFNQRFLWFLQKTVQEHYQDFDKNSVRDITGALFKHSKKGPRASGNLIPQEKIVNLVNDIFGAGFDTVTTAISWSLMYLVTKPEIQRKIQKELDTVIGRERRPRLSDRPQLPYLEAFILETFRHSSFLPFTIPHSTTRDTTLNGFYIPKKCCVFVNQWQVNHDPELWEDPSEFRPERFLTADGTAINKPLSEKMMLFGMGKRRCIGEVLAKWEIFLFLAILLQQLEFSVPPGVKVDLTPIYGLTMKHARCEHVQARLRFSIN
Protocol: as §1

[9] = Excretion balance; type: in vivo, rat; details: for excreted percent of dose, faeces / excreted percent of dose, urine: 800 mg/kg po; for radioactivity eliminated: within 48 h
Protocol: Excretion balance in rats was carried out using a single oral dose of radiolabelled fexinidazole administered at the dose of 800 mg/kg (approximately 3.7 MBq/kg, 100 µCi/kg) by gastric gavage to three male albino Sprague Dawley rats. […]
This study was conducted according to Protocol N° 0162-2008 and to Amendment 1. A copy of the experimental protocol is included in Appendix 1; a copy of the amendment is included […]
FEXINIDAZOLE is a 5-nitroimidazole derivative biologically active against Trypanosoma parasites (T.b. rhodesiense and T.b. brucei) and useful in the treatment of the Human African Trypanosomiasis (HAT), known as sleeping sickness. FEXINIDAZOLE is a compound currently under development by the Sponsor.
The objective of this study was to obtain information on the elimination of radioactive drug-related material in urine and faeces following oral administration of [14C]-FEXINIDAZOLE (800 mg/kg) to male Sprague Dawley rats.
The albino Sprague Dawley rat was chosen as the species for this study since it was one of the species used in the toxicological evaluation of the test compound.
Only male animals were used as no gender differences were expected with respect to the aim of the study. The oral route of administration was chosen as this is the intended therapeutic route. The dose level was selected in agreement with the Study Sponsor and it is within the pharmacological relevant range. No overt toxicity was expected after single dosing at this […]
The study was conducted on 3 male animals after single oral administration of [14C]- FEXINIDAZOLE (800 mg/kg, approximately 3.7 MBq/kg, 100 µCi/kg).
Urine and faeces were collected up to 96 hours after administration. The radioactivity levels of drug-related material were determined in each collected sample by Liquid Scintillation […]
A summary of the experimental design is reported below:
Animal no. Date of Dosing Administered Dose Samples collected and (oral administration) analyzed
100 µCi/kg washes, carcass and skin […]
The test formulations were prepared by suspending unlabelled FEXINIDAZOLE and [14C]- FEXINIDAZOLE (see section 5.1) in 5% Tween 80 and 0.5% Methyl cellulose 400 cP (Methocel) in water, in order to obtain [14C]-FEXINIDAZOLE at the final target concentration of 80 mg/mL corresponding to a radioactivity concentration of about 370 […]
The test formulation was prepared by suspending an appropriate amount of unlabelled FEXINIDAZOLE in the dose vehicle. This formulation was homogenised using a Potter-Elvehjem homogenizer apparatus (teflon pestle of approx. 30 mm x 53 mm and glass tube of 40 mL), in order to obtain a fine suspension by up-and-down strokes, gently made by hand. The formulation was then collected and transferred from the homogeniser glass tube to the glass pot containing the [14C]-FEXINIDAZOLE.
During the preparation the test formulation was protected from light as far as possible.
The radioactivity concentration and homogeneity of the test formulation were determined, before administration, by liquid scintillation counting of triplicate weighed aliquots of test formulation. The radiolabelled test formulation was used immediately after formulation.
6.7.1. Administered Doses
The dose of [14C]-FEXINIDAZOLE was orally administered by gastric gavage at the target dose level of 800 mg/kg (radioactivity dose of about 3.7 MBq/kg, 100 µCi/kg) and at a target dose volume of about 10 mL/kg.
Individual doses were prepared for each animal by weighing the appropriate amount of the test formulation in an appropriate syringe for oral administration. The amount of dose administered to each animal was determined by weighing the filled syringe before the treatment and the empty syringe after dose administration. The actual dose received by each animal was calculated using the weight of the administered formulation, the radioactivity concentration and the final specific activity of the test material.
The actual doses received by each animal are documented in Table 1. […]

[10] = 0-96 h, listed as [14C]-FEXINIDAZOLE

With CSc1ccc(OCc2ncc([N+](=O)[O-])n2C)cc1 [Fexinidazole, 1-methyl-2-((p-(methylthio)phenoxy)methyl)-5-nitroimidazole] as the compound, how does the “Net nuclear grain count (2–4 h)” value ([1]; 500 mg/kg po) read?
Its value is 0.0.

What about the “Net nuclear grain count (12–14 h)” value ([1]; 500 mg/kg po) of the same compound?
The value was 0.4.

And the “Net nuclear grain count (2–4 h)” value ([1]; 1000 mg/kg po)?
The value was −0.1.

And the “Net nuclear grain count (12–14 h)” value ([1]; 1000 mg/kg po)?
Its value is 0.5.

And the “Net nuclear grain count (2–4 h)” value ([1]; 2000 mg/kg po)?
Its value is −0.4.

And the “Net nuclear grain count (12–14 h)” value ([1]; 2000 mg/kg po)?
The value was 0.2.

And the UDS study result ([1]; rat, in vivo)?
The UDS study result was “confirmed the lack of mammalian genotoxic activity”.

And the “metabolism by the enzyme” value [2]?
The value was “extensively metabolised”.

And the “metabolism by the enzyme” value [3]?
The value was “extensively metabolised”.

What about the “metabolism by the enzyme” value [4] of the same compound?
Its value is “inactive”.

And the “metabolism by the enzyme” value [5]?
The value was “extensively metabolised”.

What about the “metabolism by the enzyme” value [6] of the same compound?
Its value is “extensively metabolised”.

And the “metabolism by the enzyme” value [7]?
The value was “inactive”.

And the “metabolism by the enzyme” value [8]?
The value was “extensively metabolised”.

What about the “overall recovery of total radioactivity” value ([9]; 0-96 h) of the same compound?
Its value is “approximately 93%”.

And the “percent of dose, cage washing” value ([9]; 0-96 h)?
The value was 2.73%.

And the “radioactivity recovered in all the excreta (including cage washes)” value ([9]; 0-96 h)?
Its value is “Approximately 91.4%”.

What about the “overall recovery of total radioactivity” value [9, 10] of the same compound?
The value was 92.87%.

What about the “excreted percent of dose, faeces” value ([9]; 0-96 h) of the same compound?
Its value is 59%.

And the “excreted percent of dose, urine” value ([9]; 0-96 h)?
The value was 30%.

And the “excreted percent of dose, faeces” value [9, 10]?
The value was 58.77%.

And the “excreted percent of dose, urine” value [9, 10]?
The value was 29.92%.

What about the “dose recovered from the carcass (and skin)” value ([9]; 96 h) of the same compound?
The value was “About 1.4%”.

And the “percent of dose, carcass” value ([9]; 96 h)?
The value was 1.01%.

What about the “percent of dose, skin” value ([9]; 96 h) of the same compound?
Its value is 0.43%.

And the radioactivity eliminated [9]?
Its radioactivity eliminated is 84%.

What about the radioactivity eliminated ([9]; listed as [14C]-FEXINIDAZOLE) of the same compound?
Its radioactivity eliminated is “about 84.3%”.
